The record followed here is article PMC6801708 (2019).

This assay concerns Pu22T14T23 (DNA, G4, none (G-to-T mutations at positions 14 and 23)) TGAGGGTGGGTAGGGTGGGTAA
Kind of assay: CD melting at 262 nm. The conditions noted are these: K+ (20 mM KCl); 5 mM phosphate pH 7.0; 1 µM DNA, 3 µM ligand; Tm 77.4 to 80.6.

For `CN(C)CCNC(=O)c1cccn2c(=O)c3cc4ccccc4cc3nc12`, the ΔTm entry is “+3.2 °C”.

Regarding `CN(C)CCNC(=O)c1cccn2c(=O)c3sc4ccccc4c3nc12`, the ΔTm result is “+3.2 °C”.
